Data reported in article PMC11116330, “The evolutionary novelty of insect defensins: from bacterial killing to toxin neutralization” (Cellular and Molecular Life Sciences: CMLS, 2024).
Read-outs that look alike come from different tables or passages of the source. Positions of bridges follow the written chain, without caps; N, C: chain ends. Residues, ends and D or L forms follow the SMILES beside them.

Columns and labels:
[1] = system: Bacillus megaterium CGMCC 1.0459
[2] = system: S15 DNA (15-bp fragment derived from the MRE motif CES11D1); assay: Electrophoretic mobility shift assay (EMSA); assay type: binding; conditions: 5 µM annealed double strand S15, DvirARP 2, 4 or 8 µM, room temperature 20 min, 6% native polyacrylamide, ethidium bromide staining
[3] = system: Micrococcus luteus CGMCC 1.0290
[4] = Variable temperature CD spectroscopy; assay type: physicochemical; conditions: 10 to 65 °C, oxidized product, 5 mM PB pH 7.0
Method: For CD analysis, a peptide sample was dissolved in 5 mM phosphate buffer (PB, pH7.0) with a concentration of 0.1–0.2 mg/mL. CD spectra were measured on the Chirascan Plus spectropolarimeter v.4.4.0 (Applied Photophysics Ltd, UK) by using a quartz cell of 1.0 mm thickness. The wavelengths used ranged from 190 to 260 nm. Data were collected at 1 nm intervals with a scan rate of 0.5 s per point and expressed as delta epsilon (cm^-1M^-1). Delta epsilon was calculated as [θ×(MRW×0.1)/(C×L)/3298], where θ is the ellipticity (in millidegrees), C is the concentration (in mg/mL), L is the path length (in cm), and MRW is the mean residue weight (in Da).
Fig. 4 Experiment data-guided structural model of DvirARP built by comparative modelling. (A) Comparison of CD spectra of reduced and oxidized DvirARP in 5 mM PB buffer (pH7.0). Signature bands for the presence of cation–π and 3_10-helix are denoted by arrows. (B) Thermal denaturation curves of the oxidized product at indicated temperatures. (C) Sequence comparison between DvirARP and the template MSL2 CXC (residues 542–559). Identical and conserved residues are shadowed in yellow and grey, respectively. Residues involved in cation–π interactions are underlined twice. The predicted secondary structure element and disulfide bridges are extracted from the experiment-based computational model. […] (E) The cation–π interaction on the DvirARP structure. […]

[5] = system: Methicillin-sensitive Staphylococcus aureus (MSSA) CGMCC 1.89; assay: Inhibition-zone antimicrobial assay; assay type: cell-based; conditions: 1 nmol/well

CC[C@H](C)[C@H](NC(=O)[C@H](C)NC(=O)[C@H](CC(N)=O)NC(=O)[C@H](CCCNC(=N)N)NC(=O)[C@H](C)NC(=O)[C@H](CCCNC(=N)N)NC(=O)[C@H](CCCNC(=N)N)NC(=O)[C@H](Cc1ccc(O)cc1)NC(=O)[C@@H]1CSSC[C@H](NC(=O)[C@@H](NC(=O)[C@H](C)N)C(C)C)C(=O)N[C@@H](CCCNC(=N)N)C(=O)N1)C(=O)N[C@H](C(=O)N[C@H]1CSSC[C@@H](C(=O)N[C@@H](CCCNC(=N)N)C(=O)O)NC(=O)[C@H](Cc2ccc(O)cc2)NC1=O)C(C)C [DvirARP] (H-AVCRCYRRARNAIVCYCR-OH; disulfide 3-5, 15-17; N-terminus and C-terminus assumed)
Lethal concentration CL ([1]; Bacillus CGMCC 1.0459, pH 7): 17.68 µM | Lethal concentration CL ([1]; inhibition-zone assay, 0.8% agar, 2 µL peptide per 2-mm well, peptide in 5 mM PB pH 7.0, overnight, Bacillus megaterium CGMCC 1.0459): > 10 µM | Binding of S15 DNA fragment (EMSA) [2]: not able to bind | Lethal concentration CL ([3]; CGMCC 1.0290, pH 7): 10.77 µM | Lethal concentration CL ([3]; inhibition-zone assay, 0.8% agar, 2 µL peptide per 2-mm well, peptide in 5 mM PB pH 7.0, overnight, Micrococcus luteus CGMCC 1.0290): > 10 µM | CD signature band around 230 nm (cation–π interaction) with temperature [4]: decreased with the temperature increase | CD signature band at 206 nm (3_10-helix) with temperature [4]: overall retained | Antibacterial activity in inhibition zone assay against S. aureus CGMCC 1.89 ([5]; peptide dissolved in 50% haemolymph serum from DvWT female adults): no detectable antibacterial activity | Antibacterial activity in inhibition zone assay against S. aureus CGMCC 1.89 ([5]; peptide dissolved in 50% haemolymph serum from DvdelARP female adults): no detectable antibacterial activity | Antibacterial activity in inhibition zone assay against S. aureus CGMCC 1.89 ([5]; peptide dissolved in insect saline (pH 7.2)): no detectable antibacterial activity
